Measured values taken from patent US10316017B2, “COT modulators and methods of use thereof” (Gilead Sciences, Inc., priority 2015, dated 2019).
Where two headings read alike, the source gives them in different places.

Key:
[1] = molecular target: T1, human Cot catalytic domain (30-397 amino acids) (Homo sapiens, UniProt P41279); assay: High Throughput Cot Biochemical Assay (KinEASE TR-FRET); details: read-out: IC50 HTRF
T1 construct: Purified recombinant human Cot catalytic domain (30-397 amino acids) was purchased from Cama Biosciences; purchased Cama Biosciences (so in the source)
Method in brief: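 Phosphorylation of 1 μM XL665-STK3 peptide by 5 nM Cot catalytic domain was measured by time-resolved FRET using a europium […] antibody. ATP was 400 μM; buffer was 10 mM MOPS pH 7.0 with Mg2+ and DTT.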

[2] = system: TNFα production in LPS-stimulated human monocytes; assay: Cot Monocyte TNFα Cell Based Assay; details: Homo sapiens, Monocyte, read-out: EC50 TNF
Method in brief: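 Percent-of-control values derive from TR-FRET ratios of TNFα in spun-down media, referenced to unstimulated and LPS-stimulated wells. Exposure: 1 h compound preincubation, then 50 pg/ml LPS for 4 h, both at 37 °C, with 0.5% final DMSO.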

[3] = Cot KinEASE TR-FRET, 400 μM ATP
[4] = LPS-stimulated human monocytes, TNFα TR-FRET
[5] = Cot biochemical HTRF (KinEASE TR-FRET) assay
[6] = TNFα in LPS-stimulated human monocytes
[7] = Cot KinEASE TR-FRET (HTRF) biochemical assay, 400 μM ATP

T1 sequence (P41279 30-397): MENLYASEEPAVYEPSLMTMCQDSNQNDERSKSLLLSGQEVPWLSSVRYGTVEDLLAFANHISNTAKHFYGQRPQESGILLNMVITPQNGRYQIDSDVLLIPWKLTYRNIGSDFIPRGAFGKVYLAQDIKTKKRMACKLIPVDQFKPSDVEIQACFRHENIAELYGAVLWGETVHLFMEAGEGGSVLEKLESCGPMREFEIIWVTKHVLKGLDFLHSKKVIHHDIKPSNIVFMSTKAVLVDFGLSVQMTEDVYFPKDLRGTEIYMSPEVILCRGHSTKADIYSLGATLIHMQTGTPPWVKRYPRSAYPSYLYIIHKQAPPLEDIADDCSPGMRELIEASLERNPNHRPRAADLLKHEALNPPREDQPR

IC50 [1, 3] [nM] | EC50 [2, 4] [nM] | IC50 [1, 5] [nM] | EC50 [2, 6] [nM] | IC50 [1, 7] [nM] | Compound
50 | 421 | – | – | – | CC(C)(C)CNc1c(C#N)cnc2c(C#N)cc(N[C@@H](c3ccccc3Cl)c3nnn(C4(C)CC4)c3F)cc12 [Example 1159, (S)-6-(((2-chlorophenyl)(5-fluoro-1-(1-methylcyclopropyl)-1H-1,2,3-triazol-4-yl)methyl)amino)-4-(neopentylamino)quinoline-3,8-dicarbonitrile]
– | – | 41 | 2580 | – | CC(C)(C)N1CCC(n2cc([C@@H](Nc3cc(Cl)c4ncc(C#N)c(Nc5ccc(F)c(Cl)c5)c4c3)c3ccccc3CN3CCOCC3)nn2)CC1 [Example 719, (S)-6-(((1-(1-(tert-butyl)piperidin-4-yl)-1H-1,2,3-triazol-4-yl)(2-(morpholinomethyl)phenyl)methyl)amino)-8-chloro-4-((3-chloro-4-fluorophenyl)amino)quinoline-3-carbonitrile]
– | – | 8 | 99 | – | CCN1CCC(n2cc([C@@H](Nc3cc(Cl)c4ncc(C#N)c(Nc5ccc(F)c(Cl)c5)c4c3)c3ccc(Cl)cc3)nn2)CC1 [Example 858, (S)-8-chloro-4-((3-chloro-4-fluorophenyl)amino)-6-(((4-chlorophenyl)(1-(1-ethylpiperidin-4-yl)-1H-1,2,3-triazol-4-yl)methyl)amino)quinoline-3-carbonitrile]
– | – | – | 477 | 30 | [2H][C@](Nc1cc(Cl)c2ncc(C#N)c(NC3CC3(C)C)c2c1)(c1ccc(F)cc1)c1cn(C2CC2)nn1 (stereo partly drawn) [Example 156, 8-chloro-6-(((S)-(1-cyclopropyl-1H-1,2,3-triazol-4-yl)(4-fluorophenyl)methyl-d)amino)-4-((2,2-dimethylcyclopropyl)amino)quinoline-3-carbonitrile]
– | – | – | 8670 | 2140 | [2H][C@](Nc1cc(Cl)c2ncc(C#N)c(NCCc3ccn(C)n3)c2c1)(c1ccc(F)cc1)c1cn(C2CC2)nn1 [Example 148, (S)-8-chloro-6-(((1-cyclopropyl-1H-1,2,3-triazol-4-yl)(4-fluorophenyl)methyl-d)amino)-4-((2-(1-methyl-1H-pyrazol-3-yl)ethyl)amino) quinoline-3-carbonitrile]
– | – | – | 126 | 4 | [2H][C@](Nc1cc(Cl)c2ncc(C#N)c(N[C@H](CC)c3cccc(F)c3)c2c1)(c1ccc(F)cc1)c1cn(C2CC2)nn1 [Example 300, 8-chloro-6-(((S)-(1-cyclopropyl-1H-1,2,3-triazol-4-yl)(4-fluorophenyl)methyl-d)amino)-4-(((R)-1-(3-fluorophenyl)propyl)amino) quinoline-3-carbonitrile]
– | – | – | 407 | 24 | [2H][C@](Nc1cc(Cl)c2ncc(C#N)c(NC(C)(C)C(C)C)c2c1)(c1ccc(F)cc1)c1cn(C2CC2)nn1 [Example 213, (S)-8-chloro-6-(((1-cyclopropyl-1H-1,2,3-triazol-4-yl)(4-fluorophenyl)methyl-d)amino)-4-((2,3-dimethylbutan-2-yl)amino)quinoline-3-carbonitrile]
22 | 444 | – | – | – | CN(C)C(=O)c1cccc([C@H](Nc2cc(Cl)c3ncc(C#N)c(NCC(C)(C)C)c3c2)c2cn(C3(C(F)(F)F)CC3)nn2)c1F [Example 1113, (S)-3-(((8-chloro-3-cyano-4-(neopentylamino)quinolin-6-yl)amino)(1-(1-(trifluoromethyl)cyclopropyl)-1H-1,2,3-triazol-4-yl)methyl)-2-fluoro-N,N-dimethylbenzamide]
– | – | 7 | 151 | – | CC(C)(C)N1CCC(n2cc([C@@H](Nc3cc(Cl)c4ncc(C#N)c(Nc5ccc(F)c(Cl)c5)c4c3)c3cccc(I)c3)nn2)CC1 [Example 643]
– | – | – | 204 | 40 | [2H][C@](Nc1cc(Cl)c2ncc(C#N)c(NCC(C)(C)C)c2c1)(c1ccc(F)cc1)c1cn(-c2cccnc2)nn1 [Example 335, (S)-8-chloro-6-(((4-fluorophenyl)(1-(pyridin-3-yl)-1H-1,2,3-triazol-4-yl)methyl-d)amino)-4-(neopentylamino)quinoline-3-carbonitrile]
